Reference: ChEMBL document CHEMBL4049437, “Benzoisoquinolinediones as Potent and Selective Inhibitors of BRPF2 and TAF1/TAF1L Bromodomains” (J Med Chem, 2017)
Converted amounts (≈) assume the structure as drawn. One block for each molecule: values may come before it. The source made the active and inactive calls. The rule behind the calls is not given here.

Experiments:
[1] = molecular target: Histone-lysine N-methyltransferase ASH1L (Homo sapiens) (UniProt Q9NR48); assay: Inhibition of ASH1L (unknown origin) assessed as change in melting temperature at 10 uM by SYPRO Orange-dye based fluorescence thermal shift assay
[2] = molecular target: Bromodomain adjacent to zinc finger domain protein 1A (Homo sapiens) (UniProt Q9NRL2); assay: Inhibition of BAZ1A (unknown origin) assessed as change in melting temperature at 10 uM by SYPRO Orange-dye based fluorescence thermal shift assay
[3] = molecular target: Tyrosine-protein kinase BAZ1B (Homo sapiens) (UniProt Q9UIG0); assay: Inhibition of BAZ1B (unknown origin) assessed as change in melting temperature at 10 uM by SYPRO Orange-dye based fluorescence thermal shift assay
[4] = molecular target: Bromodomain adjacent to zinc finger domain protein 2A (Homo sapiens) (UniProt Q9UIF9); assay: Inhibition of BAZ2A (unknown origin) assessed as change in melting temperature at 10 uM by SYPRO Orange-dye based fluorescence thermal shift assay
[5] = molecular target: Bromodomain adjacent to zinc finger domain protein 2B (Homo sapiens) (UniProt Q9UIF8); assay: Inhibition of BAZ2B (unknown origin) assessed as change in melting temperature at 10 uM by SYPRO Orange-dye based fluorescence thermal shift assay
[6] = molecular target: Bromodomain-containing protein 2 (Homo sapiens) (UniProt P25440); assay: Inhibition of BRD2 BD1 (unknown origin) assessed as change in melting temperature at 10 uM by SYPRO Orange-dye based fluorescence thermal shift assay
[7] = molecular target: Bromodomain-containing protein 3 (Homo sapiens) (UniProt Q15059); assay: Inhibition of BRD3 BD2 (unknown origin) assessed as change in melting temperature at 10 uM by SYPRO Orange-dye based fluorescence thermal shift assay
[8] = molecular target: T1, Bromodomain-containing protein 4 (Homo sapiens, UniProt O60885); assay: Inhibition of BRD4 BD2 (unknown origin) assessed as change in melting temperature at 10 uM by SYPRO Orange-dye based fluorescence thermal shift assay
[9] = molecular target: T2, Peregrin (Homo sapiens) (UniProt P55201); assay: Inhibition of BRPF1A (unknown origin) assessed as change in melting temperature at 10 uM by SYPRO Orange-dye based fluorescence thermal shift assay
T2 sequence (whole entry): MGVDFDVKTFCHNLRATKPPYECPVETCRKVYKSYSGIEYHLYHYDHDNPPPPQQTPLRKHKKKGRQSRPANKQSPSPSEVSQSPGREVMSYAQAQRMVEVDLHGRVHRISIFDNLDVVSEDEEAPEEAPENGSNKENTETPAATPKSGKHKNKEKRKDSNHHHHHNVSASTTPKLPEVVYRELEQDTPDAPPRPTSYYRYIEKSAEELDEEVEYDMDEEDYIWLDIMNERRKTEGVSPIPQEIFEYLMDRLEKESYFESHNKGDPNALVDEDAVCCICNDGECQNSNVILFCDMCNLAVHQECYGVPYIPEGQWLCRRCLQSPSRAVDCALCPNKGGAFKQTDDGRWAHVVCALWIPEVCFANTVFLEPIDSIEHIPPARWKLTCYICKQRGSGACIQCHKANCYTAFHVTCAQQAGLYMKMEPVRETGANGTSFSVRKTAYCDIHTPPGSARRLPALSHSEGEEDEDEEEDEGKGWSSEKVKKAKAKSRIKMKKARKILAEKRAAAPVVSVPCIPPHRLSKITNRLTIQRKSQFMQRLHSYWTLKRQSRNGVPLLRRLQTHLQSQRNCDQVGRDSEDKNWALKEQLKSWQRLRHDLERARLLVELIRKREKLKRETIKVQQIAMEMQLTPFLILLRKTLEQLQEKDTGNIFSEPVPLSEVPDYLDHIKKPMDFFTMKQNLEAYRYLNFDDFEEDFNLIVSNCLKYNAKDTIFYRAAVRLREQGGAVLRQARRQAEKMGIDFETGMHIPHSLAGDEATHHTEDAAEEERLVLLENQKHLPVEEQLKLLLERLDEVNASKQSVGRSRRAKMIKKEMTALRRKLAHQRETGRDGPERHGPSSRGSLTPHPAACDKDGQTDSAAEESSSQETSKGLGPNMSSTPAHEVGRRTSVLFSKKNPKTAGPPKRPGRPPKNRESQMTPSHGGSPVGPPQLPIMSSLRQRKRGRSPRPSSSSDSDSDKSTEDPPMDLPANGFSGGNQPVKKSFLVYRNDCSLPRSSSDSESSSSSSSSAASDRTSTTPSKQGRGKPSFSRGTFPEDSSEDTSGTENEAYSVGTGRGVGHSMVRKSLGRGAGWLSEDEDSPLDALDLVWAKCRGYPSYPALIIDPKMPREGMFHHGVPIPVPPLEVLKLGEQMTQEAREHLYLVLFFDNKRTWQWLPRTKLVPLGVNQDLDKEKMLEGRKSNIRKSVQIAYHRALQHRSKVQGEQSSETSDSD

[10] = molecular target: T2, Peregrin (Homo sapiens); assay: Inhibition of BRPF1B (unknown origin) assessed as change in melting temperature at 10 uM by SYPRO Orange-dye based fluorescence thermal shift assay
[11] = molecular target: Chromatin remodeling regulator CECR2 (Homo sapiens) (UniProt Q9BXF3); assay: Inhibition of CECR2 (unknown origin) assessed as change in melting temperature at 10 uM by SYPRO Orange-dye based fluorescence thermal shift assay
[12] = molecular target: Nucleosome-remodeling factor subunit BPTF (Homo sapiens) (UniProt Q12830); assay: Inhibition of FALZ (unknown origin) assessed as change in melting temperature at 10 uM by SYPRO Orange-dye based fluorescence thermal shift assay
[13] = molecular target: ATPase family AAA domain-containing protein 2B (Homo sapiens) (UniProt Q9ULI0); assay: Inhibition of ATAD2B (unknown origin) assessed as change in melting temperature at 10 uM by SYPRO Orange-dye based fluorescence thermal shift assay
[14] = molecular target: PH-interacting protein (Homo sapiens) (UniProt Q8WWQ0); assay: Inhibition of PHIP BD2 (unknown origin) assessed as change in melting temperature at 10 uM by SYPRO Orange-dye based fluorescence thermal shift assay
[15] = molecular target: T3, Transcription initiation factor TFIID subunit 1-like (Homo sapiens, UniProt Q8IZX4); assay: Inhibition of TAF1L BD2 (unknown origin) assessed as change in melting temperature at 10 uM by SYPRO Orange-dye based fluorescence thermal shift assay
[16] = molecular target: Transcription intermediary factor 1-alpha (Homo sapiens) (UniProt O15164); assay: Inhibition of TIF1-phd-bromo (unknown origin) assessed as change in melting temperature at 10 uM by SYPRO Orange-dye based fluorescence thermal shift assay
[17] = molecular target: Bromodomain and WD repeat-containing protein 1 (Homo sapiens) (UniProt Q9NSI6); assay: Inhibition of WDR9 BD2 (unknown origin) assessed as change in melting temperature at 10 uM by SYPRO Orange-dye based fluorescence thermal shift assay
[18] = molecular target: CREB-binding protein (Homo sapiens) (UniProt Q92793); assay: Inhibition of human CREBBP (R1081 to G1197 residues) expressed in bacterial expression system at 100 nM by BROMOScan assay
[19] = molecular target: CREB-binding protein (Homo sapiens) (UniProt Q92793); assay: Inhibition of His-tagged CREBBP (unknown origin) at 100 nM using biotin-acetylated histone H4 peptide as substrate after 30 mins by AlphaScreen assay relative to control
[20] = molecular target: T4, Peregrin (Homo sapiens, UniProt P55201); assay: Inhibition of His-tagged BRPF1 (626 to 740 residues) (unknown origin) preincubated for 15 mins followed by addition of C-terminal biotinylated synthetic K5,12 diacetylated histone H4 (1 to 20 residues) peptide as substrate measured after 1 hr by TR-FRET assay
T4 sequence (P55201 whole entry): T2 sequence (whole entry)

[21] = molecular target: T5, Bromodomain-containing protein 1 (Homo sapiens, UniProt O95696); assay: (§1) Inhibition of human BRPF2 (563 to 688 residues) expressed in Escherichia coli BL21 (DE3)-R3-pRARE2 preincubated for 15 mins followed by addition of C-terminal biotinylated synthetic K5,12 diacetylated histone H4 (1 to 20 residues) peptide as substrate measured after 1 hr by TR-FRET assay
T5 sequence (O95696 whole entry): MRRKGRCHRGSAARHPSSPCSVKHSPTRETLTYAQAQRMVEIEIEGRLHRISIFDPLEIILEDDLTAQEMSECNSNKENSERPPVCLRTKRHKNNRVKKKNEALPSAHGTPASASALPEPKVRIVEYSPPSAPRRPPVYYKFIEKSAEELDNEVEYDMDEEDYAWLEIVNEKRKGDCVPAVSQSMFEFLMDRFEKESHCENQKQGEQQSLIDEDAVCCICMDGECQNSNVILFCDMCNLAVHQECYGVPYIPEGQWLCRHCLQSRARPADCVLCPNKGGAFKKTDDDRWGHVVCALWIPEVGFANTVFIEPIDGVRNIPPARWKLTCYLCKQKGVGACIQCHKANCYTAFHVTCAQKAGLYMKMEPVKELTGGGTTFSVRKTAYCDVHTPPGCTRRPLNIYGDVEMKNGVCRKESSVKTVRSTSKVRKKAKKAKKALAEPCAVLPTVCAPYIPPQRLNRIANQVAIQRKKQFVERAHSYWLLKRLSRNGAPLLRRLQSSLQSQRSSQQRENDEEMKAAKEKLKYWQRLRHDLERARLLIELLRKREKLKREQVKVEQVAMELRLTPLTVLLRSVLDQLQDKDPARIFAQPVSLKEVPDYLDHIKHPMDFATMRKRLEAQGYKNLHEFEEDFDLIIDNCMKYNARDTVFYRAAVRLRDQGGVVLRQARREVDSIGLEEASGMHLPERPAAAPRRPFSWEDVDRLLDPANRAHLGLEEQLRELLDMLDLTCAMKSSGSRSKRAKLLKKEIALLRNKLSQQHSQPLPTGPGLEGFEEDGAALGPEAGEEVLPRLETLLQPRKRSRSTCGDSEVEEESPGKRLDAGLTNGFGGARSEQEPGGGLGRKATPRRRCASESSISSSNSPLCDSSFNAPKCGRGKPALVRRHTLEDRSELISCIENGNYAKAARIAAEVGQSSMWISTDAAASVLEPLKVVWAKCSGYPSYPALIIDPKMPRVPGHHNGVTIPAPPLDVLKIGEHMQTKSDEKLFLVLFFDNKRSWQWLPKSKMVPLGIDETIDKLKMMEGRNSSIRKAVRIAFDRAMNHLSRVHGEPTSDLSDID

[22] = molecular target: T6, Transcription initiation factor TFIID subunit 1 (Homo sapiens, UniProt P21675); assay: as §1, with “GST-tagged TAF1 BD2 (1519” for “BRPF2 (563”, “1651” for “688”, “K5,8,12,16 tetra-acetylated” for “K5,12 diacetylated”
[23] = molecular target: T1, Bromodomain-containing protein 4
[24] = molecular target: T1, Bromodomain-containing protein 4; assay: Inhibition of BRD4 BD2 (unknown origin) preincubated for 15 mins followed by addition of C-terminal biotinylated synthetic K5,8,12,16 tetra-acetylated histone H4 (1 to 20 residues) peptide as substrate measured after 1 hr by TR-FRET assay
[25] = Aqueous solubility of the compound in DMSO at pH 6.5 after 24 hrs by HPLC-MS/MS analysis; format: physicochemical; conditions: pH 6.5, 24 h
[26] = species on record: Homo sapiens; assay: Selectivity ratio of IC50 for His-tagged BRPF1 (626 to 740 residues) (unknown origin) to IC50 for human BRPF2 (563 to 688 residues) expressed in Escherichia coli BL21 (DE3) by TR-FRET assay
[27] = molecular target: Bromodomain-containing protein 1 (Homo sapiens) (UniProt O95696); assay: Binding affinity to human BRPF2 (563 to 688 residues) expressed in Escherichia coli BL21 (DE3) assessed as thermal stability by measuring change in melting temperature at 10 uM by SYPRO Orange-dye based fluorescence assay
[28] = molecular target: T2, Peregrin (Homo sapiens); assay: Inhibition of Halo-tagged histone H4 binding to C-terminally NanoLuc luciferase conjugated BRPF1 BD (626 to 732 residues) (unknown origin) expressed in human HCT116 cells after 4 to 24 hrs by BRET assay; format: cell-based
[29] = molecular target: Histone acetyltransferase p300 (Homo sapiens) (UniProt Q09472); assay: Inhibition of EP300 (unknown origin) assessed as change in melting temperature at 10 uM by SYPRO Orange-dye based fluorescence thermal shift assay
[30] = molecular target: T6, Transcription initiation factor TFIID subunit 1; assay: Stabilization of human GST-tagged TAF1 BD2 (1519 to 1651 residues) expressed in Escherichia coli BL21 (DE3) assessed as increase in melting temperature at 10 uM by SYPRO Orange-dye based fluorescence thermal shift assay
[31] = molecular target: T3, Transcription initiation factor TFIID subunit 1-like; assay: Stabilization of human GST-tagged TAF1L BD2 (1517 to 1649 residues) expressed in Escherichia coli BL21 (DE3) at 10 uM by SYPRO Orange-dye based fluorescence thermal shift assay
[32] = molecular target: T5, Bromodomain-containing protein 1

T6 sequence (P21675 whole entry): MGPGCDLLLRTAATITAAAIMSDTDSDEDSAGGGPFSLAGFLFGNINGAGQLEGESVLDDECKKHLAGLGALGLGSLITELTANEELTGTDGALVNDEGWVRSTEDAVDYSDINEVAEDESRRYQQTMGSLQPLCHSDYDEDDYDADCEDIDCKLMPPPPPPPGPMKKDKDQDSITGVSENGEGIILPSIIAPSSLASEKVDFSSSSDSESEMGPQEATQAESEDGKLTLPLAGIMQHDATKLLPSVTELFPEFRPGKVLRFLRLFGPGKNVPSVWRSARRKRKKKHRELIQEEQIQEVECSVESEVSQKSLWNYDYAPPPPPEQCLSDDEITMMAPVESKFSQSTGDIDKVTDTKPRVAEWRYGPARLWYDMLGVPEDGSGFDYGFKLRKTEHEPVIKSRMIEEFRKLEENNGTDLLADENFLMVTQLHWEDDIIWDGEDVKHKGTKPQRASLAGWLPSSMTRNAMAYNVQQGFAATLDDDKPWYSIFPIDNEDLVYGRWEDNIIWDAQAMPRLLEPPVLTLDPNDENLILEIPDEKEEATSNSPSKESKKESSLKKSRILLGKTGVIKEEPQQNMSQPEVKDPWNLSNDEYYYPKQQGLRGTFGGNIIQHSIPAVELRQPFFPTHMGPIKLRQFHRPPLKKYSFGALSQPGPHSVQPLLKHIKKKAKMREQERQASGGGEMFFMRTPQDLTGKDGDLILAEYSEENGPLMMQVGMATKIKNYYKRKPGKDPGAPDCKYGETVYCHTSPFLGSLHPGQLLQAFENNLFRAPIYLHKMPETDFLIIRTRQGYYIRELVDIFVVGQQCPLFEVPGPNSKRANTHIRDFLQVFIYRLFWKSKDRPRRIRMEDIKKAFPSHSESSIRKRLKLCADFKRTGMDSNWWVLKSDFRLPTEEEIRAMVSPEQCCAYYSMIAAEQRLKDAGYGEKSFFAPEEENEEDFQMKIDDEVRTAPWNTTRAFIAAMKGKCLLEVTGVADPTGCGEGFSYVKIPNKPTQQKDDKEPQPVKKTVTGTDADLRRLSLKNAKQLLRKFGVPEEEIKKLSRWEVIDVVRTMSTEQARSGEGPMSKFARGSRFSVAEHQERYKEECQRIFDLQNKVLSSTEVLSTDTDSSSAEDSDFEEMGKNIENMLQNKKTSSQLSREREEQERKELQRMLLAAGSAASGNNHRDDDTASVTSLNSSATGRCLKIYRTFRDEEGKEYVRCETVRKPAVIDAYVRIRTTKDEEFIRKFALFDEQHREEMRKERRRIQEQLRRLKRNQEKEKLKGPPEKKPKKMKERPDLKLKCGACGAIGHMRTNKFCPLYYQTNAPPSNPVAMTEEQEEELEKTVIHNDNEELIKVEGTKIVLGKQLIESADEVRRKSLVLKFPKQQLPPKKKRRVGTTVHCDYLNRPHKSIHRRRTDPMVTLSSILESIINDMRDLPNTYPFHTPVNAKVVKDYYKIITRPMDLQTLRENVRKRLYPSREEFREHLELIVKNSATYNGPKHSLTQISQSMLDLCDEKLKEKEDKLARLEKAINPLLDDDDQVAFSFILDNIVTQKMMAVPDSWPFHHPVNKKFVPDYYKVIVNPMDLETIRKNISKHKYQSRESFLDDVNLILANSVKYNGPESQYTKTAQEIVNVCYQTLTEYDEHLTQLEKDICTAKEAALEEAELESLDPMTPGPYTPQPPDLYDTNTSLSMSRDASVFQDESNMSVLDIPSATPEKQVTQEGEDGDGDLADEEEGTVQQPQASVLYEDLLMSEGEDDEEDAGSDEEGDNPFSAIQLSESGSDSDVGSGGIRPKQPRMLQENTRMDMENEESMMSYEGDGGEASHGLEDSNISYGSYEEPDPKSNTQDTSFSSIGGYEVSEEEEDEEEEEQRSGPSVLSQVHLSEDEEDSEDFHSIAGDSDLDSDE
T3 sequence (Q8IZX4 whole entry): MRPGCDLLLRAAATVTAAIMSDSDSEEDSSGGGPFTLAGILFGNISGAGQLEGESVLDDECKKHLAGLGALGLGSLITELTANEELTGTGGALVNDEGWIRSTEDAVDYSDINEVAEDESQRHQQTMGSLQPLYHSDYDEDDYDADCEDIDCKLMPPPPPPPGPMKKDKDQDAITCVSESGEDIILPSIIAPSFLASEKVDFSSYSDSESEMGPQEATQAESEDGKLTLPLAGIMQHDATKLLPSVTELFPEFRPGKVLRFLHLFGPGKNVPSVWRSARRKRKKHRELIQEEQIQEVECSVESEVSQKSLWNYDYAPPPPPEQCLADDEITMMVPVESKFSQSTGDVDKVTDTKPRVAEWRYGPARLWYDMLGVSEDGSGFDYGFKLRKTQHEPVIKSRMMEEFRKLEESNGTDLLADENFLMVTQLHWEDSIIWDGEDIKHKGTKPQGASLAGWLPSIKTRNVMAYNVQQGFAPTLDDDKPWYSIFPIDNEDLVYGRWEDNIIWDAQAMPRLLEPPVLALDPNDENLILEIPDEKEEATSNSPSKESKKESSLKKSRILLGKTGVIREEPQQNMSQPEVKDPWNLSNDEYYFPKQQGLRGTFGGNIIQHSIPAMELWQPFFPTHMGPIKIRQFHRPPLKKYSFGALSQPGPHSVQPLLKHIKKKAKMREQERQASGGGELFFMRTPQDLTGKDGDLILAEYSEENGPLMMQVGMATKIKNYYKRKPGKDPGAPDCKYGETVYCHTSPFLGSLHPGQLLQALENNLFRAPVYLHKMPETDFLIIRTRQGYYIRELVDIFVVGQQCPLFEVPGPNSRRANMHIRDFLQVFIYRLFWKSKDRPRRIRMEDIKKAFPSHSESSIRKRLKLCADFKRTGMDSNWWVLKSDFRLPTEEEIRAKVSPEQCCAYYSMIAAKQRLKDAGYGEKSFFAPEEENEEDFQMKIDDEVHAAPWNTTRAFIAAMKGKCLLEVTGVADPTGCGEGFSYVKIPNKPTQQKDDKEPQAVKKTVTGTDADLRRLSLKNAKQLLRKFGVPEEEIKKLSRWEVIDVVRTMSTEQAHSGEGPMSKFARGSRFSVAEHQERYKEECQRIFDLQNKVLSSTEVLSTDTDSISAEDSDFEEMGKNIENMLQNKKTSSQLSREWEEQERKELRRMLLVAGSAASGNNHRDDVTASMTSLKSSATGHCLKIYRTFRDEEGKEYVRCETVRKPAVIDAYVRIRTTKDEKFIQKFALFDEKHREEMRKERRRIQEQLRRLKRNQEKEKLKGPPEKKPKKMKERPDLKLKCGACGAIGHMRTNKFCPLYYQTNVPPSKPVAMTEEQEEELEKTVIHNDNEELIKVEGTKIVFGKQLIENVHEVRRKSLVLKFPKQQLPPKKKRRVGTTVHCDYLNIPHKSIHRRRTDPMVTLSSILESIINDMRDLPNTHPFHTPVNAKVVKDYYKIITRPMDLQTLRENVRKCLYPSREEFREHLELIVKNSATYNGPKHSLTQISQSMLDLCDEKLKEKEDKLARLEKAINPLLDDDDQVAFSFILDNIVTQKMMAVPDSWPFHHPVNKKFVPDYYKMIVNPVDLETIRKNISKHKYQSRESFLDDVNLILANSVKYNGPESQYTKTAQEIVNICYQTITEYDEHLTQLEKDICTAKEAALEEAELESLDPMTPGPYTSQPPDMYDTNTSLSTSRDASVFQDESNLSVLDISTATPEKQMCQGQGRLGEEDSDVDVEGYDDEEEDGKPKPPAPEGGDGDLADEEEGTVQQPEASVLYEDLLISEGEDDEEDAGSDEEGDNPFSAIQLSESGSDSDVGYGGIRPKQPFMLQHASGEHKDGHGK
Sequence of Transcription intermediary factor 1-alpha (Homo sapiens) (O15164 whole entry): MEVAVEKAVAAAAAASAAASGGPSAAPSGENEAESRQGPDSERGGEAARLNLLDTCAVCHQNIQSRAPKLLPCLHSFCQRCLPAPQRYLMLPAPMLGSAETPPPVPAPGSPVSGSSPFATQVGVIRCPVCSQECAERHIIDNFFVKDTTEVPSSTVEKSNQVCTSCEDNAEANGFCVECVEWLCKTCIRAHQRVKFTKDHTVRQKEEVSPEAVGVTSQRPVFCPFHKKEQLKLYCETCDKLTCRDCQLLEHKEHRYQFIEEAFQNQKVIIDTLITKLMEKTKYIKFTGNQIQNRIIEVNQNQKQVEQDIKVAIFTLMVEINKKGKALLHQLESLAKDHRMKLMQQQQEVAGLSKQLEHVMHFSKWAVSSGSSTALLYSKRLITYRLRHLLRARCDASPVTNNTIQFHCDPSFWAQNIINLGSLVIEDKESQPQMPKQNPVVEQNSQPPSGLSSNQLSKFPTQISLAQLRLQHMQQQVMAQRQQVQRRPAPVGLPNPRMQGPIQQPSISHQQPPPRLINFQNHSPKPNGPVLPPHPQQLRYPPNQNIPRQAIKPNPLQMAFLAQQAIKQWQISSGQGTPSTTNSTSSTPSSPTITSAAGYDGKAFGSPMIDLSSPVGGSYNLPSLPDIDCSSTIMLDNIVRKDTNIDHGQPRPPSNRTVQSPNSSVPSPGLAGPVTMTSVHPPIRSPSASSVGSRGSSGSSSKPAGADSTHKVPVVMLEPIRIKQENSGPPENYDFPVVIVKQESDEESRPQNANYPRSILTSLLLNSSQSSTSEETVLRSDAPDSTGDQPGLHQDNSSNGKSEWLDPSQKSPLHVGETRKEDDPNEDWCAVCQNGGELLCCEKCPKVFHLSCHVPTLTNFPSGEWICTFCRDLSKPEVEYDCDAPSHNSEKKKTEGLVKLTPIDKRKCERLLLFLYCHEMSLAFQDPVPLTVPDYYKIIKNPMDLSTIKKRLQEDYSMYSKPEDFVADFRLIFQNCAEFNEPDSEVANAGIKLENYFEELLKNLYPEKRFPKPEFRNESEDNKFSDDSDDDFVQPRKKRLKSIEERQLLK

deltaTm [1]: 1.5 K
deltaTm [2]: 0.8 K
deltaTm [3]: 0.6 K
deltaTm [4]: 1.5 K
deltaTm [5]: 1.6 K
deltaTm [6]: 3.2 K
deltaTm [7]: 1.7 K
deltaTm [8]: 3.4 K
deltaTm [9]: 0.8 K
deltaTm [10]: 2.4 K
deltaTm [11]: 3.2 K
deltaTm [12]: 2.8 K
deltaTm [13]: 1.5 K
deltaTm [14]: 1.1 K
deltaTm [15]: 4.8 K
deltaTm [16]: 0.6 K
deltaTm [17]: 0.7 K
inhibition [18]: 30%
inhibition [19]: 41%
Compound: Cc1cc2c(cc1N1C(=O)c3cccc4c(CCCO)ccc(c34)C1=O)n(C)c(=O)n2C

IC50 [20]: 14200 nM
IC50 [21]: 121 nM
IC50 [22]: 3 nM
IC50 [23]: > 13900 nM
IC50 [24]: > 15000 nM
solubility [25]: 0.1 µg/mL (≈ 0.233 µM)
Ratio IC50 [26]: 118
Compound: CCCNc1ccc2c3c(cccc13)C(=O)N(c1cc3c(cc1C)n(C)c(=O)n3C)C2=O

IC50 [20]: 547 nM
IC50 [21]: 37 nM
IC50 [22]: 8 nM
IC50 [23]: > 10100 nM
IC50 [24]: 15000 to 20000 nM
solubility [25]: Insoluble
deltaTm [27]: 6.2 K
inhibition [28]: inactive
Activity [11]: inactive
Activity [29]: inactive
Activity [30]: inactive
Activity [31]: inactive
IC50 [32]: 675 nM
Compound: Cc1cc2c(cc1N1C(=O)c3cccc4c(Cl)ccc(c34)C1=O)n(C)c(=O)n2C
